Measurements reported in patent US20200289482A1, “CYSTIC FIBROSIS TRANSMEMBRANE CONDUCTANCE REGULATOR MODULATORS FOR TREATING AUTOSOMAL DOMINANT POLYCYSTIC KIDNEY DISEASE” (The Johns Hopkins University, priority 2017, published 2020).

Key:
[1] = test system: Hsp27; assay: Western blot of Hsp27 in PN cells; format: cell-based, mouse; details: VX-809 10 μM 16 h
Experimental: (§1) FIG. 8A, FIG. 8B, FIG. 8C, FIG. 8D, FIG. 8E, FIG. 8F, FIG. 8G, and FIG. 8H show chaperone expression is altered in PH and PN cells by VX-809. (FIG. 8A) Western blot showing expression of HSP27, 70 and HSP 90 in VX-809 treated or control PN cells. […] (FIG. 8E). Western blot of HSP27, 70 and 90 in PH vs. PN cells. […] Whereas, Hsp70 is higher in PH vs. PN cells. Data were analyzed by non-parametric t test. Experiment was repeated 4-5 times. Cells were grown in 10-cm culture dishes at permissive conditions (33° C.) with γ-interferon in culture media. Cells were then transferred to non-permissive conditions at 37° C., γ-interferon free culture media and evaluated at full confluence. At day four, cells were treated with VX-809 (10 μM) for 16 h and harvested on fifth day for assay. *P<0.05., **P<0.01, ***P<0.001, ****P<0.0001; To facilitate their growth in the kidney, cysts have developed an altered network of proteins that most likely serves to protect them from stress (34). Next, it was determined whether VX-809 would alter the levels of Hsps in pkd−/− mice and in PN cells. […] Hsp 27, 70 and 90 are all elevated in cystic kidneys compared to normal controls. […] There is no change in Hsp 40. […] Both sets of data are consistent with an alteration in the heat shock response to cyst growth.

[2] = test system: kidneys of Pkd1^fl/fl; Pax8^rtTA; TetO-cre mice; assay: Ki67 staining of kidney sections (proliferation); format: in vivo, mouse; details: VX-809 30 mg/kg to mice vs DMSO-treated mice; PN21 kidney sections
From the text: FIG. 3A, FIG. 3B, FIG. 3C, and FIG. 3D show cell proliferation is reduced by VX-809. (FIG. 3A-FIG. 3B) Proliferation in kidneys of Pkd1^fl/fl; Pax8^rtTA; TetO-cre mice. Representative images of Ki67 (a cellular marker for proliferation) staining of PN21 kidney sections from DMSO- and VX-809-treated mice. Arrows indicate Ki67-positive cells. Pictures were acquired with a Zeiss microscope equipped with 20× objective. (FIG. 3C) Summary data for Ki67-positive cells. Columns represent averages±standard errors of DMSO (vehicle)-treated (n=3) and VX-809-treated (n=3) mice. Statistical analysis was performed using a two-tailed Student's t test. (FIG. 3D) Proliferation in PN cells. PN cells were treated with VX-809 or DMSO). The bromodeoxyuridine (BrdU) concentration in the cells was measured by using a BrdU cell proliferation assay kit (Millipore Sigma #2750) according to the manufacturer's protocol. Columns represent averages±SEs of the OD of BrdU at 450/550 […]. Data were analyzed using Student's t-test, with n=5-7. Methods were described previously (62). […]; **P<0.01;
A hallmark of the cysts in ADPKD is an increase in proliferation in response to cAMP (23). Therefore, it was determined whether VX-809 would affect proliferation.

[3] = test system: Hsp70; assay: Western blot of Hsp70 in PN cells; format: cell-based, mouse; details: VX-809 10 μM 16 h
Experimental: as §1

[4] = test system: Hsp70; assay: Cycloheximide chase, disappearance of Hsp70 in PN cells; format: cell-based, mouse; details: VX-809 10 μM with cycloheximide 25 μM
Experimental: FIG. 9A, FIG. 9B, FIG. 9C, FIG. 9D, FIG. 9E, FIG. 9F, FIG. 9G, and FIG. 9H show Hsp27, HSp70, and Hsp90 expression in PN cells treated with VX-809 and/or cycloheximide. (A) Pkd1 null (PN) cells were treated with VX-809 (10 μM) and/or with cycloheximide (25 μM) for indicated time points before being harvested for the assay. (FIG. 9A) Western blot showing expression of Hsp27, Hsp70, and Hsp90 in VX-809-(16 h), cycloheximide-treated, or control PN cells. ((FIG. 9B. (FIG. 9C, and (FIG. 9D) Columns represent averages±standard errors of Hsp27, Hsp70, and Hsp90 expression in cells treated with VX-809 and/or cycloheximide. ((FIG. 9E) Western blot showing expression of Hsp27, Hsp70, and Hsp90 in PN cells treated with VX-809+cycloheximide or control PN cells. ((FIG. 9F, (FIG. 9G, and (FIG. 9H) Columns represent averages±standard errors of Hsp27, Hsp70, and Hsp90 expression in cells treated only with cycloheximide or in control PN cells. Data were analyzed by non-parametric t-test. The experiments were repeated 3-5 times. *P<0.05, **P<0.01;
To gain more insight into the mechanism whereby VX-809 alters Hsp protein levels, translation was inhibited by using cycloheximide (35) and the disappearance of the three Hsps was monitored. […] Hsp 90 was reduced by approximately 25%, and Hsp27 was unchanged.

[5] = test system: Hsp70; assay: Western blot of Hsp70 in kidney tissue lysates; format: in vivo, mouse; details: cyst induced pkd−/− mice, VX-809 30 mg/kg BW
Experimental: FIG. 7A, FIG. 7B, FIG. 7C, FIG. 7D, FIG. 7E, and FIG. 7F show chaperone expression is altered in mice by VX-809. (FIG. 7A-FIG. 7B) Representative Western blot images of HSP27, 70, 90 and HSP40 in lysates of kidney tissue from no cyst induced (ND), cyst induced with Doxycycline (D) or cyst induced pkd−/− mice treated with VX-809 (D+VX-809) 30 mg/kg BW. (FIG. 7C, FIG. 7D, FIG. 7E, and FIG. 7F) Columns represent averages±standard errors of HSP27, 70, 90 and HSP40 expression. Data were analyzed by non-parametric t-test. n=4 for each treated and control groups. Black lines between lanes represent representative experiments from the same gel. *P<0.05; **P<0.01; To facilitate their growth in the kidney, cysts have developed an altered network of proteins that most likely serves to protect them from stress (34). Next, it was determined whether VX-809 would alter the levels of Hsps in pkd−/− mice and in PN cells. […] Hsp 27, 70 and 90 are all elevated in cystic kidneys compared to normal controls. […] There is no change in Hsp 40. […] Both sets of data are consistent with an alteration in the heat shock response to cyst growth.

lumacaftor [VX-809]
Hsp27 expression in PN cells [1]: reduced expression
cell proliferation (Ki67-positive cells) [2]: significantly inhibit cell proliferation
Hsp70 expression in PN cells [3]: reduced expression
Hsp70 levels over the 8-h period relative to time 0 [4]: approximately half the level observed at time 0
Hsp70 expression in kidneys [5]: significantly less expression
